Results taken from patent publication US20200237703A1, “OLEACEIN FOR USE IN ATHEROSCLEROSIS PREVENTION” (WARSZAWSKI UNIWERSYTET MEDYCZNY, priority 2017, published 2020).

How the values were obtained:
macrophage foam cells = assay: Formation of foam cells / lipid deposits in macrophages, Red Oil O staining; format: cell-based, human; settings: oleacein 50 μmol/L + oxLDL 50 μg/mL
Procedure: (§1) All experiments were conducted with the use of macrophage cells isolated from human peripheral blood. […] Expression of scavenger receptors was determined using flow cytometer. Visualization of lipid deposits in macrophages (foam cells) was carried out with the use of well-known Red Oil O staining method.
The images were acquired using fluorescence microscope Nikon TS100F. D—control, the cells without stimulation, E—the cells incubated with oleacein (50 μmol/L), F—the cells stimulated with oxLDL (50 μg/mI)—stimulated control, G—the cells incubated with oleacein (50 μmol/L) and oxLDL (50 μg/mL).

[1] = tested on: macrophage cells isolated from human peripheral blood; assay: Cytotoxicity on macrophage cells; format: cell-based; settings: oleacein 20 μmol/L and 50 μmol/L, 72 hours
Procedure: as §1

C/C=C(/C=O)[C@@H](CC=O)CC(=O)OCCc1ccc(O)c(O)c1 [oleacein]
effect on the formation of foam cells and lipid deposits (macrophage foam cells): inhibitory effect | cytotoxicity on macrophage cells [1]: no cytotoxicity
